Data as given in patent US20240294499A1, “TARGETED PROTEIN DEGRADATION USING BIFUNCTIONAL COMPOUNDS THAT BIND UBIQUITIN LIGASE AND TARGET MCL-1 PROTEIN” (Captor Therapeutics S.A., priority 2021, published 2024).

Target: [MCL-1]-[compound of formula (I)]-[CRBN/DDB1] complex (Homo sapiens, UniProt Q07820+Q96SW2)
Test: AlphaLISA dose response ternary complex formation assay
Type: binding
Settings: read-out: AlphaLISA dose response Average pEC50 by molecule (converted)
Procedure: The effect of the bifunctional compounds of the invention on the formation of a ternary complex composed of [MCL-1]-[compound of formula (I)]-[CRBN/DDB1] was investigated with two methods: AlphaLISA dose response assay or HTRF ternary complex assay.
Two types of protein solution were prepared: • 40 nM biotinylated hMCL-1, 40 μg/ml AlphaScreen Streptavidin-coated Donor Beads in PBS buffer with 0.1% Tween-20 and 1 mM DTT, • 200 nM 6×His-CRBN/Strep-DDB1, 40 μg/ml AlphaLISA Anti-6×His Acceptor beads in PBS buffer with 0.1% Tween-20 and 1 mM DTT.
The prepared solutions were incubated at room temperature for 45 min and then the solution containing the donor beads was mixed with the solution containing the acceptor beads.
The tested compounds were dispensed onto a white 384-well AlphaPlate 384 SW. DMSO was backfilled to all wells, resulting in a final DMSO content of 2%. Wells containing only DMSO served as background. Next, 10 μl of solution with donor and acceptor beads was added to the wells.
The plate was sealed with transparent film and shaken using a VibroTurbulator for 60 see at room temperature, level 3. The plate was then spun down shortly (10 s, 1000 rcf, room temperature) and incubated at 25° C. for 30 min.
The read-out was performed with PerkinElmer Enspire Multimode Plate Reader (method for AlphaLISA 384-well low volume, Filterset: λexc=680 nm, λem=615 nm).
The results were analyzed as follows: • 1) an average of luminescence for background signal was calculated and used as a negative control; • 2) average of the maximum measured luminescence for 233 was calculated and used as an internal positive control; • 3) raw luminescence values were normalized against positive and negative controls; • 4) concentration points above the hook point were excluded; • 5) EC50 and pEC50 values were determined.

Chain of [MCL-1]-[compound of formula (I)]-[CRBN/DDB1] complex (Q07820 whole entry): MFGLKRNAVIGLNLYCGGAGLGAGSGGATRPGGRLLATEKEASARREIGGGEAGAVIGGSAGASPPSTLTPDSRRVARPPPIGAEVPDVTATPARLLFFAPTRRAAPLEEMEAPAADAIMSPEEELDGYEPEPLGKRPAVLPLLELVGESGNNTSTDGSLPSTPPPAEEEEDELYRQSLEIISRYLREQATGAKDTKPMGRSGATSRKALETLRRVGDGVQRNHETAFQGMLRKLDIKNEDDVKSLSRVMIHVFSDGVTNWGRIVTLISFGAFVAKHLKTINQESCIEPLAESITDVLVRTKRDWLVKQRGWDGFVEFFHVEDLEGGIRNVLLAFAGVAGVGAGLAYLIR
Chain of [MCL-1]-[compound of formula (I)]-[CRBN/DDB1] complex (Q96SW2 whole entry): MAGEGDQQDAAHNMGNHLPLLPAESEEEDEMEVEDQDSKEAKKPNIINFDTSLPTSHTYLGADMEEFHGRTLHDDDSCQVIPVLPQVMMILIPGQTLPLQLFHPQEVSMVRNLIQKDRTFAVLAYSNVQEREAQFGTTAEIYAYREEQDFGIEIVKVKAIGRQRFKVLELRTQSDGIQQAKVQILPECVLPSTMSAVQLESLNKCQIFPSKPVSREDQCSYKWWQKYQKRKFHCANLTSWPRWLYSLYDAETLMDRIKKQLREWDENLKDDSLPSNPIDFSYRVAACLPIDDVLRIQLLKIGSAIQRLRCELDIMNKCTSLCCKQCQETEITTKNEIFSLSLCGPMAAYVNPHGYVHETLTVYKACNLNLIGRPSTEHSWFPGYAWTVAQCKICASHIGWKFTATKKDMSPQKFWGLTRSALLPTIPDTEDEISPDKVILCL
Chain of [MCL-1]-[compound of formula (I)]-[CRBN/DDB1] complex (Q16531 whole entry partner): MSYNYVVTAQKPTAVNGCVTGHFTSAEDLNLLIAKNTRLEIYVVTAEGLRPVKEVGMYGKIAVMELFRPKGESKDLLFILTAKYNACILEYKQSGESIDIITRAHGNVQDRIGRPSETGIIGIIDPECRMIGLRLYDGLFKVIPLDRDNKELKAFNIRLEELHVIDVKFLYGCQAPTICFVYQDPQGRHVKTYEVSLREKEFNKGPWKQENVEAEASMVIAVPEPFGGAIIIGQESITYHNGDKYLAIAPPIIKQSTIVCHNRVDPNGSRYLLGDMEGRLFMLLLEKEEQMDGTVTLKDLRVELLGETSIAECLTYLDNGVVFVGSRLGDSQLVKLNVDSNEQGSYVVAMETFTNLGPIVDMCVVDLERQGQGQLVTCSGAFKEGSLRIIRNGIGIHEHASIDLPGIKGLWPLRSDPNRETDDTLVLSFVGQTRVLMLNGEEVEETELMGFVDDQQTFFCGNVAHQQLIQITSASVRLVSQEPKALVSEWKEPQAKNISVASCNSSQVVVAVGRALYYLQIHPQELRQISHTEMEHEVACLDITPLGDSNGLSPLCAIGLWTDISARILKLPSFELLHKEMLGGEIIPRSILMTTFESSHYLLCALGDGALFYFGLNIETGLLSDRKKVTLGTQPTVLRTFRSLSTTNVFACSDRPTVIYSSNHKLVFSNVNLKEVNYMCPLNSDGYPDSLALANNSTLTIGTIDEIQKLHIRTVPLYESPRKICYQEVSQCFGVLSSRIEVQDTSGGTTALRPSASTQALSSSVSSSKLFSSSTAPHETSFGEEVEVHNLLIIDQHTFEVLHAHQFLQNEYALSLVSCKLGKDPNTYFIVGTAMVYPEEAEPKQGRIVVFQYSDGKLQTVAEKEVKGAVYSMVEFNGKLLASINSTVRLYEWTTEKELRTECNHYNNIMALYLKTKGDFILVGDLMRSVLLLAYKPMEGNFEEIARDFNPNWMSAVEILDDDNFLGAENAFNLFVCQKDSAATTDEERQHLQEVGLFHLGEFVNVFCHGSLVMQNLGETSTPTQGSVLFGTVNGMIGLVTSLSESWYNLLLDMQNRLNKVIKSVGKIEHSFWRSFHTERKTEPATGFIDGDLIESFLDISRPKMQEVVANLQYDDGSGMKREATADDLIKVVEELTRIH

| Compound | EC50 [µM] |
| --- | --- |
| Cc1nn(C)c(COc2ccc(N3CCN(S(=O)(=O)N(C)C)CC3)cc2)c1-c1cccc2c(CCCOc3cccc4ccccc34)c(C(=O)O)n(CCN3CCN(C(=O)COc4ccc5c(c4)C(=O)N(C4CCC(=O)NC4=O)C5=O)CC3)c12 (stereo not shown) [Compound 248, 7-(5-((4-(4-(N,N-dimethylsulfamoyl)piperazin-1-yl)phenoxy)methyl)-1,3-dimethyl-1H-pyrazol-4-yl)-1-(2-(4-(2-((2-(2,6-dioxopiperidin-3-yl)-1,3-dioxoisoindolin-5-yl)oxy)acetyl)piperazin-1-yl)ethyl)-3-(3-(naphthalen-1-yloxy)propyl)-1H-indole-2-carboxylic acid] | < 1 |
| Cc1nn(C)c(C)c1-c1c(Cl)ccc2c(CCCOc3cccc4ccccc34)c(C(=O)O)n(CCN3C[C@@H]4C[C@H]3CN4C(=O)COc3cccc4c3CN(C3CCC(=O)NC3=O)C4=O)c12 (stereo partly drawn) [Compound 209, 6-chloro-1-{2-[(1S,4S)-5-(2-{[2-(2,6-dioxopiperidin-3-yl)-1-oxo-2,3-dihydro-1H-isoindol-4-yl]oxy}acetyl)-2,5-diazabicyclo[2.2.1]heptan-2-yl]ethyl}-3-[3-(naphthalen-1-yloxy)propyl]-7-(1,3,5-trimethyl-1H-pyrazol-4-yl)-1H-indole-2-carboxylic acid] | < 0.1 |
| Cc1cc(OCCCc2c(C(=O)O)n(C)c3c(-c4c(C)nn(CCCOCCOCCNc5cccc6c5C(=O)N(C5CCC(=O)NC5=O)C6=O)c4C)cccc23)cc(C)c1Cl (stereo not shown) [Compound 227, 3-(3-(4-chloro-3,5-dimethylphenoxy)propyl)-7-(1-(3-(2-(2-((2-(2,6-dioxopiperidin-3-yl)-1,3-dioxoisoindolin-4-yl)amino)ethoxy)ethoxy)propyl)-3,5-dimethyl-1H-pyrazol-4-yl)-1-methyl-1H-indole-2-carboxylic acid] | < 1 |
| Cc1c2c(nn1C)CSCc1cc(n(C)n1)CSc1cc(c3ccccc3c1)OCCCc1c(C(=O)NS(=O)(=O)CCNC(=O)CCOCCOCCNc3cccc4c3C(=O)N(C3CCC(=O)NC3=O)C4=O)n(C)c3c-2c(Cl)ccc13 (stereo not shown) [Compound 261, N-{2-[({17-chloro-5,13,14,22-tetramethyl-28-oxa-2,9-dithia-5,6,12,13,22-pentaazaheptacyclo[27.7.1.1^4,^7.0^11,^15.0,^16,^21.0^20,^24.0^30,^35]octatriaconta-1(37),4(38),6,11,14,16,18,20,23,29,31,33,35-tridecaen-23-yl}formamido)sulfonyl]ethyl}-3-[2-(2-{[2-(2,6-dioxopiperidin-3-yl)-1,3-dioxo-2,3-dihydro-1H-isoindol-4-yl]amino}ethoxy)ethoxy]propanamide] | < 1 |
| Cc1cc(OCCCc2c(C(=O)O)n(CCN3CCN(C(=O)CNc4cccc5c4C(=O)N(C4CCC(=O)NC4=O)C5=O)CC3)c3c(-c4c(C)nn(C)c4C)cccc23)cc(C)c1Cl (stereo not shown) [Compound 233, 3-(3-(4-chloro-3,5-dimethylphenoxy)propyl)-1-(2-(4-((2-(2,6-dioxopiperidin-3-yl)-1,3-dioxoisoindolin-4-yl)glycyl)piperazin-1-yl)ethyl)-7-(1,3,5-trimethyl-1H-pyrazol-4-yl)-1H-indole-2-carboxylic acid] | < 1 |
| Cc1nn(CCCOCCOCCNc2cccc3c2C(=O)N(C2CCC(=O)NC2=O)C3=O)c(C)c1-c1cccc2c(CCCOc3cccc4ccccc34)c(C(=O)O)n(CCN3CCOCC3)c12 (stereo not shown) [Compound 232, 7-(1-(3-(2-(2-((2-(2,6-dioxopiperidin-3-yl)-1,3-dioxoisoindolin-4-yl)amino)ethoxy)ethoxy)propyl)-3,5-dimethyl-1H-pyrazol-4-yl)-1-(2-morpholinoethyl)-3-(3-(naphthalen-1-yloxy)propyl)-1H-indole-2-carboxylic acid] | < 1 |
| Cc1c(-c2cccc3c(CCCOc4cccc5ccccc45)c(C(=O)O)n(CCN4CCN(C(=O)COc5cccc6c5C(=O)N(C5CCC(=O)NC5=O)C6=O)CC4)c23)c(COc2ccc(Br)c(C=O)c2)nn1C (stereo not shown) [Compound 251, 7-(3-((4-Bromo-3-formylphenoxy)methyl)-1,5-dimethyl-1H-pyrazol-4-yl)-1-(2-(4-(2-((2-(2,6-dioxopiperidin-3-yl)-1,3-dioxoisoindolin-4-yl)oxy)acetyl)piperazin-1-yl)ethyl)-3-(3-(naphthalen-1-yloxy)propyl)-1H-indole-2-carboxylic acid] | < 0.1 |
| Cc1nn(C)c(C)c1-c1c(Cl)ccc2c(CCCOc3cccc4ccccc34)c(C(=O)O)n(CCN3CCN(C(=O)COc4cc(C(F)(F)F)nc5c(C(=O)NC6CCC(=O)NC6=O)scc45)CC3)c12 (stereo not shown) [Compound 267, 6-chloro-1-(2-{4-[2-({7-[(2,6-dioxopiperidin-3-yl)carbamoyl]-2-(trifluoromethyl)thieno[3,4-b]pyridin-4-yl}oxy)acetyl]piperazin-1-yl}ethyl)-3-[3-(naphthalen-1-yloxy)propyl]-7-(1,3,5-trimethyl-1H-pyrazol-4-yl)-1H-indole-2-carboxylic acid] | < 0.1 |
| Cc1nn(C)c(C)c1-c1c(Cl)ccc2c(CCCOc3cccc4c3C3CCC4C3)c(C(=O)O)n(CCN3CCN(C(=O)COc4cccc5c4CN(C4CCC(=O)NC4=O)C5=O)CC3)c12 (stereo not shown) [Compound 352, 6-Chloro-1-(2-(4-(2-((2-(2,6-dioxopiperidin-3-yl)-1-oxoisoindolin-4-yl)oxy)acetyl)piperazin-1-yl)ethyl)-3-(3-((1,2,3,4-tetrahydro-1,4-methanonaphthalen-5-yl)oxy)propyl)-7-(1,3,5-trimethyl-1H-pyrazol-4-yl)-1H-indole-2-carboxylic acid] | < 1 |
| Cc1nn(C)c(C)c1-c1c(Cl)ccc2c(CCCOc3cccc4c3CCCC4)c(C(=O)O)n(CCN3CCN(C(=O)COc4cccc5c4CN(C4CCC(=O)NC4=O)C5=O)CC3)c12 (stereo not shown) [Compound 219, 6-chloro-1-(2-(4-(2-((2-(2,6-dioxopiperidin-3-yl)-1-oxoisoindolin-4-yl)oxy)acetyl)piperazin-1-yl)ethyl)-3-(3-((5,6,7,8-tetrahydronaphthalen-1-yl)oxy)propyl)-7-(1,3,5-trimethyl-1H-pyrazol-4-yl)-1H-indole-2-carboxylic acid] | < 0.01 |
| Cc1nn(C)c(C)c1-c1c(Cl)ccc2c(CCCN(C)c3cccc4ccccc34)c(C(=O)O)n(CCN3CCN(C(=O)COc4cccc5c4CN(C4CCC(=O)NC4=O)C5=O)CC3)c12 (stereo not shown) [Compound 353, 6-Chloro-1-(2-(4-(2-((2-(2,6-dioxopiperidin-3-yl)-1-oxoisoindolin-4-yl)oxy)acetyl)piperazin-1-yl)ethyl)-3-(3-(methyl(naphthalen-1-yl)amino)propyl)-7-(1,3,5-trimethyl-1H-pyrazol-4-yl)-1H-indole-2-carboxylic acid] | < 1 |

Test system: MV-4-11 cells
Test: Cell viability assay (CellTiter-Glo), MV-4-11
Type: cell-based
Settings: Homo sapiens, MV4-11, 24 hours incubation, 1% FBS, read-out: Average pIC50 by molecule MV-4-11 (converted)
Description: The effect of various compounds of the invention on the viability of OPM-2, MV-4-11 and ARH-77 cell lines was investigated, using the CTG protocol described below.
OPM-2 and MV-4-11 cell lines are derived from multiple myeloma and acute myeloid leukaemia, respectively. Both cell lines are described in the literature as MCL-1 dependent lines, as opposed to lymphoblast-like ARH-77 cell line, which is described as independent of MCL-1 (Tron A E et al. Nat Commun. 2018; 9: 5341; Caenepeel S et al. Cancer Discov. 2018 December; 8(12):1582-1597).
Cells (OPM-2, MV-4-11 or ARH-77) were seeded on […] in a growth medium with FBS reduced to 1%. Next, compound stocks were pre-diluted in DMSO and added directly to the cells growth medium (final DMSO concentration: 0.5%). Compound concentrations used in this assay: 1/3 dilutions starting at 30 uM (9 to 12 points).
After 24 hours of incubation, cell viability was evaluated using CellTiter-Glo Luminescent Cell Viability Assay (Promega, cat #G7572). Luminescence signal was measured using a CLARIOstar Plus Multi-Mode Microplate Reader (574-590 nm).
Results were normalized to DMSO control.

| Compound | IC50 [µM] |
| --- | --- |
| Cc1nn(C)c(C)c1-c1c(Cl)ccc2c(CCCOc3cccc4ccccc34)c(C(=O)O)n(CCN3CCN(C(=O)COc4cccc5c4C(=O)N(C4CCC(=O)N(C)C4=O)C5=O)CC3)c12 (stereo not shown) [Compound 205, 6-chloro-1-(2-(4-(2-((2-(1-methyl-2,6-dioxopiperidin-3-yl)-1,3-dioxoisoindolin-4-yl)oxy)acetyl)piperazin-1-yl)ethyl)-3-(3-(naphthalen-1-yloxy)propyl)-7-(1,3,5-trimethyl-1H-pyrazol-4-yl)-1H-indole-2-carboxylic acid] | ≤ 0.316 |
| Cc1nn(C)c(C)c1-c1c(Cl)ccc2c(CCCOc3cccc4ccccc34)c(C(=O)O)n(CCN3CCN(C(=O)CCc4nc5c(C(=O)NC6CCC(=O)NC6=O)cccc5[nH]4)CC3)c12 (stereo not shown) [Compound 265] | ≤ 1 |
